From patent publication EP1834952A1, “Compound for promoting the growth of neural cells” (NatureWise Biotech & Medicals Corporation, priority 2006, dated 2007) come the findings set out here.

Molecules are shown by their SMILES.

Type in all cases: cell-based, Wistar rat
The test system of test [1] is cortical neurons. As to the kind of experiment: Survival of cortical neurons, live cell count by MTT assay (Examples 2 and 3). As to conditions: 300 cells/mm^2; 5 days; versus DMSO control; FIG. 2. The method, then: Cells obtained from the suspension prepared in Example 1 were cultivated in 6-well plates coated with 30 µg/ml of poly-D-lysine (Sigma) at 300 cells/mm^2 and cultivated at 37°C, 5% CO2 and 95% relative humidity. The growth media contained compounds A, B, D, E, F, G, and H respectively and the growth media added with 5 µl of DMSO were used as control. The differentiated cells after cultivation were categorically called cortical neurons.
The experiments were repeated three times. After cultivating for 5 days, live cells were counted by a known cell-counting method (MTT assay) and the absorbance was read at 540 nm.
Cells obtained from the suspension prepared in Example 1 were cultivated at a density of 150 or 300 cells/mm^2 in 6-well plates coated with 30 µg/ml poly-D-lysine (Sigma) at 37°C, 5% CO2 and 95% relative humidity. The growth media contained compounds A, D, and G respectively and the growth media added with 5 µl of DMSO were used as control. The differentiated cells are categorically called cortical neurons.
The experiments were repeated three times. After cultivating for 5 days, the live cells were counted by a known cell-counting method (MTT assay) and the absorbance was read at 540 nm.
(Formazan colour is commonly taken as a measure of viable cells.)

Another test relates to neural stem cells. Nature of the test: Differentiation of NSCs from neurospheres, MAP-2 immunofluorescent staining (Examples 5 and 6). The method, then:
In the beginning of cultivating NSCs, either compound A or EGF was added into the growth media. The cells were cultivated for 3 days and the cells would aggregate to form neurospheres. One hundred µl of the cell suspension was aspirated and diluted to 1 ml. 250 µl of the supernatant which contained neurospheres was aspirated and placed on the cover slides coated with 30 µg/ml poly-D-lysine (Sigma). After all the cells had been attached onto the slides, the media was removed and replaced with the cultivating media containing compound A (FIG. 5A), EGF (FIG. 5C), or none of the growth factors (FIG. 5B, compound A in the beginning; FIG 5D, EGF in the beginning). The cells were cultivated for another 3 days at the same condition as described above so that the cells would differentiate into cortical neurons.
The cells were stained with a known immunofluorescent staining method. To stain the neurons, a neurological marker of MAP-2 (microtubule-associated protein 2) antibody was used as the primary antibody and a fluorescent material-labeled mouse immunoglobulin that identified primary antibody was used as the second antibody. After the primary antibody that had been bound onto the neurons was identified and bound by the secondary antibody, the neurons emit fluorescent light under the excitation of a specific light source.
The procedures were similar to Example 5. However, in the beginning of cultivating the neural stem cells, both compound D and EGF were added into the media. After all the cells had been attached onto the slides, the media were removed and replaced with the cultivating media containing compound D (FIG. 6B), EGF (FIG. 6C), none of the growth factors (FIG. 6D), or both compound D and EGF (FIG. 6A). The cells were cultivated for another 3 days and the cell morphology was observed thereafter by using immunofluorescent staining technique.

The subject of test [2] is cortical neurons. As to the kind of experiment: Neurite length of cortical neurons cultivated at low density, by microscope (Example 4). The settings on record: 38 cells/mm^2, 5 days; for growth of neurons and neurites under microscope: in the control all neural cells are dead. The method, then:
Cells obtained from the suspension prepared in Example 1 were cultivated at a density of 38 cells/ mm^2 in 6-well plates coated with 30 µg/ml poly-D-lysine (Sigma) at 37°C, 5% CO2 and 95% relative humidity. The growth media contained compounds A, B, D, and G respectively and the growth media added with 5 µl of DMSO were used as control. The differentiated cells are categorically called cortical neurons.
The experiments were repeated three times. After cultivating for 5 days, the cells were observed under microscope and the length of the neurites was measured.

A further test has as its system NSCs. As to the kind of experiment: Continuous cultivation of NSCs for 30 days, morphology and later differentiation (Example 7). On the procedure: As in Example 1, the NSCs were cultivated continuously and the growth media were replaced every seven days. DMSO-added growth media were used as the negative control. After 30 days, 100 µl of the cell suspension was aspirated and diluted to 1 ml. 250 µl of the supernatant was aspirated and placed on the slides coated with 30 µg/ml poly-D-lysine (Sigma). The cell morphology was observed thereafter under a microscope.
Unlike the normal neural stem cells, the cells lose their propensity to aggregate and form spheres, and the cells become atrophic in the cultivating suspension. […] These cells were cultivated for another 3 days and the cells were stained with immunofluorescence the same as in Example 5.

Take `CC(C)=CCC/C(C)=C/Cc1c([C@@H]2CC(=O)c3c(O)cc(O)cc3O2)ccc(O)c1O` [compound D]: the “absorbance at 540 nm (live cells, MTT assay)” value (shortened to “absorbance at 540 nm”) in the test with cortical neurons [1] is listed as “best results”. The “differentiation of NSCs (MAP-2 staining)” value in the test with neural stem cells (both compound D and EGF in the beginning, compound D thereafter, FIG. 6B) is on record as “the cells will differentiate into neurons”. In the test on cortical neurons [2] (5 µM), the “length of neurites, L1” value worked out at 211 µm; the “neurites extending out of each soma” value was “at least 3”; the “growth of neurons and neurites under microscope” value (from here on “growth of neurons and neurites”) was “continuous growth of the neurons and the extension of the neurites can be observed”.
`CC(C)=CCC/C(C)=C/Cc1c(O)cc2c(c1O)C(=O)C[C@@H](c1ccc(O)c(O)c1CC=C(C)C)O2` [compound G]: in the test on cortical neurons [1], the “absorbance at 540 nm” value is on record as “best results”. For the same molecule, in the test on cortical neurons [2] (5 µM), the “length of neurites, L1” value was determined as 316 µm; the “length of neurites, L2” value came out at 216 µm; the “neurites extending out of each soma” value is reported as “at least 3”; the “growth of neurons and neurites” value was “continuous growth of the neurons and the extension of the neurites can be observed”.
On to `C/C(=C\Cc1cc([C@@H]2CC(=O)c3c(O)cc(O)cc3O2)cc(O)c1O)CCCC(C)(C)O` [compound B], for which, in the test with cortical neurons [2] (5 µM), the “length of neurites, L1” value is 235 µm; the “neurites extending out of each soma” value is recorded as “at least 3”; the “growth of neurons and neurites” value is “continuous growth of the neurons and the extension of the neurites can be observed”.
With `C/C(=C\Cc1c([C@@H]2CC(=O)c3c(O)cc(O)cc3O2)ccc(O)c1O)CCCC(C)(C)O` [compound A], in the test on NSCs (media replaced every seven days, almost no surviving cells in DMSO control, FIG. 7B), the “cell morphology of NSCs after 30 days” value is recorded as “can maintain the characteristics of forming spherical clusters”. Also, in the test on NSCs (then another 3 days on slides, FIG. 7C), the “differentiation of 30-day neurospheres (immunofluorescence)” value is given as “differentiating normally into neurons with the continuous outgrowth of neurites”. Further, in the test with cortical neurons [1], the “absorbance at 540 nm” value was “best results”. The “differentiation of NSCs (MAP-2 staining)” value in the test with neural stem cells (supplemented in the beginning (3 days) and thereafter at seeding on slides (another 3 days), FIG. 5A/5C) is “the cells will differentiate into neurons”. Further, the “differentiation of NSCs (MAP-2 staining)” value with neural stem cells (supplemented in the beginning only, none thereafter, FIG. 5B/5D) is given as “the cells will differentiate into neurons”. In the test with cortical neurons [2] (2.5 µM), the “length of neurites, L1” value is reported as 236 µm; the “length of neurites, L2” value is listed as 161 µm; the “neurites extending out of each soma” value was “at least 3”; the “growth of neurons and neurites” value is “continuous growth of the neurons and the extension of the neurites can be observed”.
